Source: PubChem BioAssay AID248 (DTP/NCI, 2004)
Toxic doses and inconclusive results are not listed. No stated cut-off is given here; in the data, active means T/C of 150% or more; inactive means T/C below 125%.

Tested on: L1210 leukemia ip in BDF1 mice, survival T/C
Assay: NCI In Vivo Anticancer Drug Screen. Data for tumor model L1210 Leukemia (intraperitoneal) in B6D2F1 (BDF1) mice
Conditions: endpoint: mean survival time, higher = longer survival
Outline: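 Value reflects the ratio of survival in compound-treated mice to survival in vehicle-treated controls, with both groups carrying the same transplanted tumor.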

[1] = dose: 75.0 mg/kg/injection, schedule: Q01DX001 (ip), vehicle: other
[2] = dose: 100.0 mg/kg/injection, schedule: Q01DX009 (ip), vehicle: saline with Tween-80
[3] = dose: 200.0 mg/kg/injection, schedule: Q01DX009 (ip), vehicle: saline with Tween-80
[4] = dose: 400.0 mg/kg/injection, schedule: Q01DX009 (ip), vehicle: saline with Tween-80
[5] = dose: 100.0 mg/kg/injection, schedule: Q04DX003 (ip), vehicle: saline with Tween-80
[6] = dose: 200.0 mg/kg/injection, schedule: Q04DX003 (ip), vehicle: saline with Tween-80
[7] = dose: 100.0 mg/kg/injection, schedule: Q01DX009 (ip), vehicle: Klucel (hydroxypropylcellulose) (HPC)
[8] = dose: 200.0 mg/kg/injection, schedule: Q01DX009 (ip), vehicle: Klucel (hydroxypropylcellulose) (HPC)
[9] = dose: 400.0 mg/kg/injection, schedule: Q01DX009 (ip), vehicle: Klucel (hydroxypropylcellulose) (HPC)
[10] = dose: 400.0 mg/kg/injection, schedule: Q04DX003 (ip), vehicle: saline with Tween-80
[11] = dose: 100.0 mg/kg/injection, schedule: Q04DX003 (ip), vehicle: saline
[12] = dose: 200.0 mg/kg/injection, schedule: Q04DX003 (ip), vehicle: saline
[13] = dose: 400.0 mg/kg/injection, schedule: Q04DX003 (ip), vehicle: saline

Measured: T/C

CCOC(=O)Cn1c2ccccc2c2cc3c(C)nccc3c(C)c21
inactive: dose: 4.69 mg/kg/injection, schedule: Q01DX009 (ip), vehicle: saline with Tween-80 93 % of control | dose: 9.37 mg/kg/injection, schedule: Q01DX009 (ip), vehicle: saline with Tween-80 96 % of control | dose: 9.37 mg/kg/injection, schedule: Q04DX003 (ip), vehicle: saline with Tween-80 96 % of control | dose: 18.75 mg/kg/injection, schedule: Q01DX009 (ip), vehicle: saline with Tween-80 95 % of control | dose: 18.75 mg/kg/injection, schedule: Q04DX003 (ip), vehicle: saline with Tween-80 105 % of control | dose: 37.5 mg/kg/injection, schedule: Q01DX009 (ip), vehicle: saline with Tween-80 95 % of control | dose: 37.5 mg/kg/injection, schedule: Q04DX003 (ip), vehicle: saline with Tween-80 96 % of control | dose: 75.0 mg/kg/injection, schedule: Q01DX009 (ip), vehicle: saline with Tween-80 103 % of control | dose: 75.0 mg/kg/injection, schedule: Q04DX003 (ip), vehicle: saline with Tween-80 105 % of control | dose: 150.0 mg/kg/injection, schedule: Q01DX009 (ip), vehicle: saline with Tween-80 97 % of control | dose: 150.0 mg/kg/injection, schedule: Q04DX003 (ip), vehicle: saline with Tween-80 113 % of control

O=C1C(O)=C(c2ccc(Br)cc2)C(=O)C(O)=C1c1ccc(Br)cc1
inactive: [1] 103 % of control

c1ccc2c(c1)ccc1ccc(C3=NCCO3)cc12
inactive: dose: 100.0 mg/kg/injection, schedule: Q01DX001 (ip), vehicle: Klucel (hydroxypropylcellulose) (HPC) 94 % of control | dose: 200.0 mg/kg/injection, schedule: Q01DX001 (ip), vehicle: Klucel (hydroxypropylcellulose) (HPC) 100 % of control | dose: 400.0 mg/kg/injection, schedule: Q01DX001 (ip), vehicle: Klucel (hydroxypropylcellulose) (HPC) 100 % of control

Cc1cc(C)c(N(CC(=O)O)S(=O)(=O)c2ccccc2)c(C)c1N(CC(=O)O)S(=O)(=O)c1ccccc1
inactive: [2] 101 % of control | [3] 98 % of control | [4] 97 % of control

CC/C(C)=C\CC/C(C)=C/COc1cccc(OC)c1
inactive: dose: 100.0 mg/kg/injection, schedule: Q04DX002 (ip), vehicle: saline with Tween-80 108 % of control | dose: 200.0 mg/kg/injection, schedule: Q04DX002 (ip), vehicle: saline with Tween-80 101 % of control | dose: 400.0 mg/kg/injection, schedule: Q04DX002 (ip), vehicle: saline with Tween-80 103 % of control

N#CC12C(=O)C3C4C=CC(C4)C3C(=O)C1(C#N)C1C=CC2C1 (stereo unspecified)
inactive: [5] 94 % of control | [6] 92 % of control

CSc1ccc(NC(=S)NCCc2ccccc2)cc1
inactive: [7] 114 % of control | [8] 97 % of control | [9] 102 % of control

CN1C2CCC1C(=O)N(Cc1ccccc1)C2=O
inactive: [5] 102 % of control | [6] 93 % of control | [10] 101 % of control

NCc1c(Cl)c(Cl)c(CN)c(Cl)c1Cl
inactive: dose: 50.0 mg/kg/injection, schedule: Q01DX009 (ip), vehicle: saline with Tween-80 96 % of control | dose: 50.0 mg/kg/injection, schedule: Q04DX003 (ip), vehicle: saline with Tween-80 92 % of control | [2] 94 % of control | [5] 92 % of control | [3] 88 % of control | [6] 105 % of control

C=CCOc1ccccc1Cl
inactive: [7] 110 % of control | dose: 100.0 mg/kg/injection, schedule: Q04DX003 (ip), vehicle: Klucel (hydroxypropylcellulose) (HPC) 94 % of control | [8] 88 % of control | dose: 200.0 mg/kg/injection, schedule: Q04DX003 (ip), vehicle: Klucel (hydroxypropylcellulose) (HPC) 106 % of control | [9] 106 % of control | dose: 400.0 mg/kg/injection, schedule: Q04DX003 (ip), vehicle: Klucel (hydroxypropylcellulose) (HPC) 103 % of control

O=c1c(Br)cocc1Br
inactive: [2] 92 % of control | [3] 97 % of control | [4] 102 % of control

CC(=O)OC(C)CC[P+](c1ccccc1)(c1ccccc1)c1ccccc1 (stereo unspecified)
inactive: [1] 104 % of control | dose: 150.0 mg/kg/injection, schedule: Q01DX001 (ip), vehicle: other 106 % of control

COc1ccc(-c2cc(C(=O)O)c3cc4ccccc4cc3n2)cc1Br
inactive: [7] 107 % of control | [8] 93 % of control | [9] 105 % of control

O=C(O)CC(Nc1ccc([N+](=O)[O-])cc1[N+](=O)[O-])C(=O)O (stereo unspecified)
inactive: [11] 96 % of control | [12] 100 % of control | [13] 120 % of control

CC1OC(n2ccc(NC(=O)c3ccc(NC(=O)C(C)(N)CO)cc3)nc2=O)CCC1OC1OC(C)C(N(C)C)C(O)C1O (stereo unspecified)
inactive: dose: 100.0 mg/kg/injection, schedule: Q01DX001 (ip), vehicle: carboxymethylcellulose (CMC) 106 % of control | dose: 200.0 mg/kg/injection, schedule: Q01DX001 (ip), vehicle: carboxymethylcellulose (CMC) 100 % of control | dose: 400.0 mg/kg/injection, schedule: Q01DX001 (ip), vehicle: carboxymethylcellulose (CMC) 106 % of control

CCOC(=O)c1cc(C)nnc1C(=O)OCC
inactive: [2] 104 % of control | dose: 100.0 mg/kg/injection, schedule: Q01DX009 (ip), vehicle: saline 100 % of control | [5] 97 % of control | [11] 107 % of control | [3] 104 % of control | dose: 200.0 mg/kg/injection, schedule: Q01DX009 (ip), vehicle: saline 103 % of control | [6] 106 % of control | [12] 112 % of control | [4] 103 % of control | dose: 400.0 mg/kg/injection, schedule: Q01DX009 (ip), vehicle: saline 101 % of control | [10] 101 % of control | [13] 98 % of control

CC(C)(Cc1ccc(Cl)cc1)N=C(N)N
inactive: dose: 25.0 mg/kg/injection, schedule: Q04DX002 (ip), vehicle: Klucel (hydroxypropylcellulose) (HPC) 107 % of control | dose: 50.0 mg/kg/injection, schedule: Q04DX002 (ip), vehicle: Klucel (hydroxypropylcellulose) (HPC) 95 % of control | dose: 100.0 mg/kg/injection, schedule: Q04DX002 (ip), vehicle: Klucel (hydroxypropylcellulose) (HPC) 104 % of control

CNC(=O)c1ccc[n+](CC(=O)Nc2ccc(Cl)cc2)c1
inactive: dose: 100.0 mg/kg/injection, schedule: Q04DX003 (ip), vehicle: acetone 110 % of control | dose: 200.0 mg/kg/injection, schedule: Q04DX003 (ip), vehicle: acetone 98 % of control

O=C(NC/C(Br)=C/Br)Oc1cccc2c1CCCC2
inactive: dose: 100.0 mg/kg/injection, schedule: Q04DX002 (ip), vehicle: other 94 % of control | dose: 200.0 mg/kg/injection, schedule: Q04DX002 (ip), vehicle: other 94 % of control | dose: 400.0 mg/kg/injection, schedule: Q04DX002 (ip), vehicle: other 91 % of control

CC(C)(C)c1ccc(SCN(CSc2ccc(C(C)(C)C)cc2)Cc2ccccc2)cc1
inactive: dose: 100.0 mg/kg/injection, schedule: Q01DX001 (ip), vehicle: other 105 % of control | dose: 200.0 mg/kg/injection, schedule: Q01DX001 (ip), vehicle: other 100 % of control | dose: 400.0 mg/kg/injection, schedule: Q01DX001 (ip), vehicle: other 94 % of control

c1ccc(N=Nc2ccncc2)cc1
inactive: dose: 6.25 mg/kg/injection, schedule: Q04DX003 (ip), vehicle: saline with Tween-80 101 % of control | dose: 12.5 mg/kg/injection, schedule: Q04DX003 (ip), vehicle: saline with Tween-80 92 % of control | dose: 25.0 mg/kg/injection, schedule: Q04DX003 (ip), vehicle: saline with Tween-80 97 % of control
